Test results: ChEMBL document CHEMBL1949531, “Synthesis and antiviral activities of novel gossypol derivatives” (Bioorg Med Chem Lett, 2012); call rule not given here
pIC50: −log10 of the molar value.

molecular target: Albumin (Homo sapiens, UniProt P02768); experiment: Binding affinity to human serum albumin by fluorescence quenching assay; assay type: ADME; details: isolated protein
Sequence (P02768 whole entry): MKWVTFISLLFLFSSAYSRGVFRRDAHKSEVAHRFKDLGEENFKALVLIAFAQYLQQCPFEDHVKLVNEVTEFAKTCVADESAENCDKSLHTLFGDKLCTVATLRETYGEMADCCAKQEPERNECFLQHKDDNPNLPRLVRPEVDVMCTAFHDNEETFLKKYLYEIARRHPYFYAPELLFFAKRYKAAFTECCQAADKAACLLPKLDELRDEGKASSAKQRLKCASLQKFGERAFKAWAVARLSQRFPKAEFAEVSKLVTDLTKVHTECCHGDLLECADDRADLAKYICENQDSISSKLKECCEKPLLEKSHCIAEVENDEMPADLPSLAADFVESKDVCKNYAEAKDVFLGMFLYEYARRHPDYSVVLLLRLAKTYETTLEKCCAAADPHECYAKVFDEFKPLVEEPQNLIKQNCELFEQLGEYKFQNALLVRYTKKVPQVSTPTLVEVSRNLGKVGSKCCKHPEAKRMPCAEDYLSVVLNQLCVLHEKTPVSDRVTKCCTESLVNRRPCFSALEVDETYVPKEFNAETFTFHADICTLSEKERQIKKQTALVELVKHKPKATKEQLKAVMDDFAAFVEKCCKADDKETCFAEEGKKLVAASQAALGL

| SMILES | Ka |
| --- | --- |
| COC(=O)[C@H](C)N/C=C1\C(=O)C(O)=C(C(C)C)c2cc(C)c(-c3c(C)cc4c(c3O)/C(=C/N[C@@H](C)C(=O)OC)C(=O)C(O)=C4C(C)C)c(O)c21 | 1.0413 ×10⁴ L/mol |
| CCOC(=O)CN/C=C1\C(=O)C(O)=C(C(C)C)c2cc(C)c(-c3c(C)cc4c(c3O)/C(=C/NCC(=O)OCC)C(=O)C(O)=C4C(C)C)c(O)c21 | 1.9028 ×10² L/mol |
| Cc1cc2c(c(O)c1-c1c(C)cc3c(c1O)/C(=C/NCC(=O)[O-])C(=O)C(O)=C3C(C)C)/C(=C/NCC(=O)[O-])C(=O)C(O)=C2C(C)C.[Na+].[Na+] | 1.2462 ×10⁴ L/mol |
| COC(=O)[C@H](Cc1c[nH]c2ccccc12)N/C=C1\C(=O)C(O)=C(C(C)C)c2cc(C)c(-c3c(C)cc4c(c3O)/C(=C/N[C@@H](Cc3c[nH]c5ccccc35)C(=O)OC)C(=O)C(O)=C4C(C)C)c(O)c21 | 2.262 ×10³ L/mol |

test system: Influenza A virus; experiment: Antiviral activity against Influenza A virus (A/Vietnam/1194/2004(H5N1)) infected in MDCK cells assessed as inhibition of viral replication by plaque reduction assay; assay type: functional, organism-based; details: not given

| SMILES | pIC50 |
| --- | --- |
| COC(=O)[C@H](C)N/C=C1\C(=O)C(O)=C(C(C)C)c2cc(C)c(-c3c(C)cc4c(c3O)/C(=C/N[C@@H](C)C(=O)OC)C(=O)C(O)=C4C(C)C)c(O)c21 | 5.94 |
| NC12CC3CC(CC(C3)C1)C2 [AMANTADINE] | 5.62 |
| CCOC(=O)CN/C=C1\C(=O)C(O)=C(C(C)C)c2cc(C)c(-c3c(C)cc4c(c3O)/C(=C/NCC(=O)OCC)C(=O)C(O)=C4C(C)C)c(O)c21 | 5.01 |
| Cc1cc2c(c(O)c1-c1c(C)cc3c(c1O)/C(=C/NCC(=O)[O-])C(=O)C(O)=C3C(C)C)/C(=C/NCC(=O)[O-])C(=O)C(O)=C2C(C)C.[Na+].[Na+] | 5.01 |
| CC(=O)N[C@H]1[C@H]([C@H](O)[C@H](O)CO)OC(C(=O)O)=C[C@@H]1NC(=N)N [ZANAMIVIR] | 6.92 |
| COC(=O)[C@H](Cc1c[nH]c2ccccc12)N/C=C1\C(=O)C(O)=C(C(C)C)c2cc(C)c(-c3c(C)cc4c(c3O)/C(=C/N[C@@H](Cc3c[nH]c5ccccc35)C(=O)OC)C(=O)C(O)=C4C(C)C)c(O)c21 | 5.14 |

test system: not listed separately; experiment: Cytotoxicity against MDCK cells by MTT assay; assay type: cell-based, Canis lupus familiaris; details: dog

| SMILES | CC50 [µM] |
| --- | --- |
| COC(=O)[C@H](C)N/C=C1\C(=O)C(O)=C(C(C)C)c2cc(C)c(-c3c(C)cc4c(c3O)/C(=C/N[C@@H](C)C(=O)OC)C(=O)C(O)=C4C(C)C)c(O)c21 | > 48.5 |
| NC12CC3CC(CC(C3)C1)C2 [AMANTADINE] | > 220 |
| CCOC(=O)CN/C=C1\C(=O)C(O)=C(C(C)C)c2cc(C)c(-c3c(C)cc4c(c3O)/C(=C/NCC(=O)OCC)C(=O)C(O)=C4C(C)C)c(O)c21 | > 48.5 |
| Cc1cc2c(c(O)c1-c1c(C)cc3c(c1O)/C(=C/NCC(=O)[O-])C(=O)C(O)=C3C(C)C)/C(=C/NCC(=O)[O-])C(=O)C(O)=C2C(C)C.[Na+].[Na+] | > 49.3 |
| CC(=O)N[C@H]1[C@H]([C@H](O)[C@H](O)CO)OC(C(=O)O)=C[C@@H]1NC(=N)N [ZANAMIVIR] | > 100 |
| COC(=O)[C@H](Cc1c[nH]c2ccccc12)N/C=C1\C(=O)C(O)=C(C(C)C)c2cc(C)c(-c3c(C)cc4c(c3O)/C(=C/N[C@@H](Cc3c[nH]c5ccccc35)C(=O)OC)C(=O)C(O)=C4C(C)C)c(O)c21 | > 36.3 |

test system: Human immunodeficiency virus 1; experiment: Antiviral activity against HIV1 3B infected human TZM-bl cells assessed as inhibition of viral replication by luciferase reporter assay; assay type: functional, organism-based; details: tzm-bl

| SMILES | IC50 |
| --- | --- |
| COC(=O)[C@H](C)N/C=C1\C(=O)C(O)=C(C(C)C)c2cc(C)c(-c3c(C)cc4c(c3O)/C(=C/N[C@@H](C)C(=O)OC)C(=O)C(O)=C4C(C)C)c(O)c21 | Not Active |
| CCOC(=O)CN/C=C1\C(=O)C(O)=C(C(C)C)c2cc(C)c(-c3c(C)cc4c(c3O)/C(=C/NCC(=O)OCC)C(=O)C(O)=C4C(C)C)c(O)c21 | Not Active |
| COC(=O)[C@H](Cc1c[nH]c2ccccc12)N/C=C1\C(=O)C(O)=C(C(C)C)c2cc(C)c(-c3c(C)cc4c(c3O)/C(=C/N[C@@H](Cc3c[nH]c5ccccc35)C(=O)OC)C(=O)C(O)=C4C(C)C)c(O)c21 | Not Active |

test system: not listed separately; experiment: Selectivity index, ratio of CC50 for MDCK cells to IC50 for Influenza A virus (A/Vietnam/1194/2004(H5N1)); assay type: functional; details: not given

| SMILES | Ratio CC50/IC50 |
| --- | --- |
| COC(=O)[C@H](C)N/C=C1\C(=O)C(O)=C(C(C)C)c2cc(C)c(-c3c(C)cc4c(c3O)/C(=C/N[C@@H](C)C(=O)OC)C(=O)C(O)=C4C(C)C)c(O)c21 | >41.77 |
| NC12CC3CC(CC(C3)C1)C2 [AMANTADINE] | >92.59 |
| CCOC(=O)CN/C=C1\C(=O)C(O)=C(C(C)C)c2cc(C)c(-c3c(C)cc4c(c3O)/C(=C/NCC(=O)OCC)C(=O)C(O)=C4C(C)C)c(O)c21 | >5 |
| Cc1cc2c(c(O)c1-c1c(C)cc3c(c1O)/C(=C/NCC(=O)[O-])C(=O)C(O)=C3C(C)C)/C(=C/NCC(=O)[O-])C(=O)C(O)=C2C(C)C.[Na+].[Na+] | >5 |
| CC(=O)N[C@H]1[C@H]([C@H](O)[C@H](O)CO)OC(C(=O)O)=C[C@@H]1NC(=N)N [ZANAMIVIR] | >836 |
| COC(=O)[C@H](Cc1c[nH]c2ccccc12)N/C=C1\C(=O)C(O)=C(C(C)C)c2cc(C)c(-c3c(C)cc4c(c3O)/C(=C/N[C@@H](Cc3c[nH]c5ccccc35)C(=O)OC)C(=O)C(O)=C4C(C)C)c(O)c21 | >5 |

test system: not listed separately; experiment: Cytotoxicity in human TZM-bl cells by MTT assay; assay type: cell-based; details: not given

| SMILES | CC50 [µM] |
| --- | --- |
| COC(=O)[C@H](C)N/C=C1\C(=O)C(O)=C(C(C)C)c2cc(C)c(-c3c(C)cc4c(c3O)/C(=C/N[C@@H](C)C(=O)OC)C(=O)C(O)=C4C(C)C)c(O)c21 | 25.6 |
| CCOC(=O)CN/C=C1\C(=O)C(O)=C(C(C)C)c2cc(C)c(-c3c(C)cc4c(c3O)/C(=C/NCC(=O)OCC)C(=O)C(O)=C4C(C)C)c(O)c21 | 25.7 |
| COC(=O)[C@H](Cc1c[nH]c2ccccc12)N/C=C1\C(=O)C(O)=C(C(C)C)c2cc(C)c(-c3c(C)cc4c(c3O)/C(=C/N[C@@H](Cc3c[nH]c5ccccc35)C(=O)OC)C(=O)C(O)=C4C(C)C)c(O)c21 | 22 |
